This is an account of results in ChEMBL document CHEMBL1147922, “Tetrahydroindazole inhibitors of bacterial type II topoisomerases. Part 2: SAR development and potency against multidrug-resistant strains” (Bioorg Med Chem Lett, 2007).

In brackets after ≈: the same amount, converted by molar mass.

In experiment [1] the test system is Staphylococcus aureus. Briefly: Antibacterial activity against ciprofloxacin resistant methicillin resistant Staphylococcus aureus OC4222. Type of experiment: functional.
Experiment [2] concerns Staphylococcus aureus. Briefly: Antibacterial activity against ciprofloxacin resistant methicillin resistant Staphylococcus aureus OC5273. It is filed as functional.
Experiment [3] in a line: Inhibition of bacterial DNA gyrase.
The nature of experiment [4]: Inhibition of bacterial DNA topoisomerase 4.
The subject of experiment [5] is Escherichia coli. Briefly: Antibacterial activity against Escherichia coli KL16. Type of experiment: functional.
In experiment [6] the test system is Staphylococcus aureus. In words: Antibacterial activity against Staphylococcus aureus ATCC 13709. Type of experiment: functional.
Experiment [7] has as its system Streptococcus pneumoniae. Briefly: Antibacterial activity against Streptococcus pneumoniae ATCC 49619. Type of experiment: functional.
For experiment [8], the system named is Staphylococcus aureus. Briefly: Antibacterial activity against quinolone susceptible methicillin resistant Staphylococcus aureus OC2878. It is filed as functional.
Experiment [9] relates to Staphylococcus aureus. In words: Antibacterial activity against ciprofloxacin resistant methicillin resistant Staphylococcus aureus OC3946. Type of experiment: functional.
Experiment [10] concerns Staphylococcus aureus. Briefly: Antibacterial activity against ciprofloxacin resistant methicillin resistant Staphylococcus aureus OC4159. Type of experiment: functional.

Consider `COc1ccc2nccc(-n3cc4c(n3)CCC(NC(=O)c3ccc5c(c3)NC(=O)CS5)C4)c2n1` (stereo not given), for which the MIC – broadly, the lowest concentration that inhibits growth of the organism – in [1] is 0.5 µg/mL (≈ 1.03 µM); in experiment [2], 0.062 µg/mL (≈ 0.127 µM); in experiment [5] it was over 128 µg/mL; in experiment [6], 0.06 µg/mL (≈ 0.123 µM); in experiment [7] it was 4 µg/mL (≈ 8.22 µM); in experiment [8] it was 0.031 µg/mL (≈ 0.0637 µM). Also, the MIC is 0.007 µg/mL (≈ 0.0144 µM) in experiment [9] and 0.5 µg/mL (≈ 1.03 µM) in experiment [10]. Moreover, the IC50 in [3] and in experiment [4] was 0.25 µg/mL (≈ 0.514 µM) each time.

As for `COc1ccc2nccc(-n3cc4c(n3)CCC(NCc3ccc5c(c3)NC(=O)CS5)C4)c2c1` (stereo not given), the MIC amounted to 0.25 µg/mL (≈ 0.53 µM) in experiment [1]; 0.5 µg/mL (≈ 1.06 µM) in experiment [2]; 2 µg/mL (≈ 4.24 µM) in experiment [5]; 0.5 µg/mL (≈ 1.06 µM) in experiment [6]; 2 µg/mL (≈ 4.24 µM) in experiment [7]; 0.5 µg/mL (≈ 1.06 µM) in [8]. Besides, the MIC in experiment [9] and in experiment [10] was 0.25 µg/mL (≈ 0.53 µM) each time. The IC50 – broadly, the concentration needed to halve the response being measured – in experiment [3] turned out to be 0.06 µg/mL (≈ 0.127 µM); in experiment [4], 0.16 µg/mL (≈ 0.339 µM).

Turning to `COc1ccc2nccc(-n3cc4c(n3)CCC(NC(=O)c3cc5c(cc3F)SCC(=O)N5)C4)c2n1` (stereo not given), the MIC worked out at 0.015 µg/mL (≈ 0.0297 µM) in experiment [1]; 0.031 µg/mL (≈ 0.0614 µM) in experiment [2]; 128 µg/mL (≈ 254 µM) in experiment [5]; 0.25 µg/mL (≈ 0.495 µM) in [6]; 2 µg/mL (≈ 3.96 µM) in [7]; 0.031 µg/mL (≈ 0.0614 µM) in experiment [8]. The minimal inhibitory concentration (MIC) in [9] and in experiment [10] was 0.007 µg/mL (≈ 0.0139 µM) throughout. Further, the IC50 was 0.12 µg/mL (≈ 0.238 µM) in [3] and 0.125 µg/mL (≈ 0.248 µM) in experiment [4].

`COc1ccc2nccc(-n3cc4c(n3)CCC(NCc3ccc5c(c3)NC(=O)CS5)C4)c2n1` (stereo not given): the MIC is 0.125 µg/mL (≈ 0.265 µM) in experiment [1]; 0.5 µg/mL (≈ 1.06 µM) in experiment [2]; 1 µg/mL (≈ 2.12 µM) in experiment [5]; 0.25 µg/mL (≈ 0.529 µM) in experiment [6]; 1 µg/mL (≈ 2.12 µM) in [7]; 0.5 µg/mL (≈ 1.06 µM) in experiment [8]. In addition, the MIC in [9] was 0.125 µg/mL (≈ 0.265 µM); in experiment [10], 0.25 µg/mL (≈ 0.529 µM). The IC50 in [3] amounted to 0.125 µg/mL (≈ 0.265 µM); in experiment [4] it was 0.03 µg/mL (≈ 0.0635 µM).

For the compound `O=C1CSc2ccc(C(=O)NC3CCc4nn(-c5cccc6cccnc56)cc4C3)cc2N1` (stereo not given), the MIC in experiment [1] turned out to be 4 µg/mL (≈ 8.78 µM); in [2], 0.5 µg/mL (≈ 1.1 µM); in [5] it was 16 µg/mL (≈ 35.1 µM); in [6] it was 0.25 µg/mL (≈ 0.549 µM); in experiment [7], 4 µg/mL (≈ 8.78 µM); in experiment [8] it was 0.25 µg/mL (≈ 0.549 µM). Also, the figures for the MIC in [9] and in experiment [10] were 0.125 µg/mL (≈ 0.274 µM) and 4 µg/mL (≈ 8.78 µM), respectively. Also, the figures for the IC50 in experiment [3] and in [4] were 2 µg/mL (≈ 4.39 µM) and 0.125 µg/mL (≈ 0.274 µM), respectively.

Take `COc1ccc2nccc(-n3cc4c(n3)CCC(NC(=O)c3ccc5c(c3)NC(=O)CS5)C4)c2c1` (stereo not given): the MIC is 0.062 µg/mL (≈ 0.128 µM) in experiment [1]; 0.25 µg/mL (≈ 0.515 µM) in experiment [2]; 4 µg/mL (≈ 8.24 µM) in experiment [5]; 0.25 µg/mL (≈ 0.515 µM) in [6]; 2 µg/mL (≈ 4.12 µM) in experiment [7]; 0.125 µg/mL (≈ 0.257 µM) in [8]. Moreover, the MIC in experiment [9] is 0.015 µg/mL (≈ 0.0309 µM); in experiment [10], 0.031 µg/mL (≈ 0.0638 µM). In addition, the IC50 in [3] is 0.12 µg/mL (≈ 0.247 µM); in [4], 0.125 µg/mL (≈ 0.257 µM).

In the case of `COc1ccc2nccc(-n3cc4c(n3)CCC(NCc3ccc5c(c3)OCCO5)C4)c2c1` (stereo not given), the MIC was 16 µg/mL (≈ 36.2 µM) in experiment [1]; 1 µg/mL (≈ 2.26 µM) in experiment [2]; 128 µg/mL (≈ 289 µM) in [5]; 0.5 µg/mL (≈ 1.13 µM) in [6]; 1 µg/mL (≈ 2.26 µM) in experiment [7]; 0.5 µg/mL (≈ 1.13 µM) in experiment [8]. For the same compound, the minimum inhibitory concentration (MIC) in experiment [9] turned out to be 0.5 µg/mL (≈ 1.13 µM); in experiment [10], 16 µg/mL (≈ 36.2 µM). Moreover, the IC50 was found to be 2 µg/mL (≈ 4.52 µM) in experiment [3] and 0.06 µg/mL (≈ 0.136 µM) in experiment [4].
